Experimental findings from PMC5554220, “A Novel Aldosterone Antagonist Limits Renal Injury in 5/6 Nephrectomy” (Scientific Reports, 2017) are described below.

The Ki is the equilibrium dissociation constant of an inhibitor or competing ligand from its target.

Data set [1] addresses T1, human glucocorticoid receptor (hGR) (Homo sapiens, UniProt P04150).
T1 construct: expressed in transfected cells; host or cells: HEK293 cells
T1 sequence (P04150 1-777): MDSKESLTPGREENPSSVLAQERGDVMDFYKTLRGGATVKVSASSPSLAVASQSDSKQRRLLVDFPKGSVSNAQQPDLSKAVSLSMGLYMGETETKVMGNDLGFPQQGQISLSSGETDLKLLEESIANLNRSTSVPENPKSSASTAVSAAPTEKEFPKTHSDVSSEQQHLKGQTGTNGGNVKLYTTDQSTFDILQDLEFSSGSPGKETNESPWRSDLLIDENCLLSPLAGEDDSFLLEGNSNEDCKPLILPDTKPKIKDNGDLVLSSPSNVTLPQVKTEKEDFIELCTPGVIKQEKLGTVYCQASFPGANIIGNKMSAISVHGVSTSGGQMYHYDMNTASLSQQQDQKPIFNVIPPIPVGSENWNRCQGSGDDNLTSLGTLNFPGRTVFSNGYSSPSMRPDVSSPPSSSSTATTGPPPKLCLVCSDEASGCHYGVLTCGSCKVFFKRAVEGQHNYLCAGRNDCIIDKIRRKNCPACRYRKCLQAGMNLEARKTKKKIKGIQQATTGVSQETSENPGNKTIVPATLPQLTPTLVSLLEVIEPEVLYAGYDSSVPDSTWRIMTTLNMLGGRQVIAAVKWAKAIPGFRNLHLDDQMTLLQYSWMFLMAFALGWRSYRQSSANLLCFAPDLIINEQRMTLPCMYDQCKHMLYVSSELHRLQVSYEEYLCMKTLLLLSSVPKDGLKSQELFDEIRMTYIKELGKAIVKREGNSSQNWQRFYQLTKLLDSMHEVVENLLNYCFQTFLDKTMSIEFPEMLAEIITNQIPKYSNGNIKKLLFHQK
The data set is described as follows: Radioligand binding, hGR expressed in HEK293 cells. As for the experimental part: Affinity of ligands to the soluble receptor was determined using vacuum filtration methods, preparing soluble receptors in 96-well Falcon polystyrene plates (BD Biosciences, Bedford, MA) in a total volume of 250 μl. The hMR Sf9 lysate (approximately 20–25 μg protein in 20 μl) was incubated in the absence or presence of competing ligands with 10 μl of [1,2,6,7-3H] […] Binding studies for ligands for hPR and hAR were determined using [1,2,6,7-3H(N)] Progesterone (specific activity 103 Ci/mmol, at a final concentration 0.5 nM; NET381, NEN/Perkin Elmer Life Sciences, Boston, MA) and [17α-methyl-3H] Mibolerone, an enzymaticaly stable analog of testosterone (specific activity 76.8 Ci/mmol, final concentration 0.3 nM; NET919, NEN), respectively. Specific binding of 3H-progesterone for hPR and 3H-mibolerone for hAR was determined in the presence and absence of 1 μM mifepristone. Inhibition constants (Ki), were determined either from the Cheng-Prusoff equation[32], or directly using non-linear regression curve fitting to a three-parameter one-site competitive equation. Ki values obtained from individual concentration response curves were reported as the mean ± SEM. Protein was measured using colorimetric detection and quantification of bicinchoninic acid (BCA Protein Assay, Pierce, Rockford, IL). Cos-7L cells were cotransfected with expression vectors and a reporter plasmid responsive to all 3 nuclear hormone receptors. pBluescript II SK (+) (Stratagene, San Diego, CA) was included as a source of carrier DNA. The number of repetitions of full concentration response curves (n) represents values from at least two independent experiments for each condition. Concentration response curves were analyzed statistically using a four-parameter logistic equation (Hill equation for sigmoid curves). Similar methodology was adopted for the human glucocorticoid receptor (hGR) expressed in HEK293 cells.

For data set [2], the system named is rats with 5/6 renal ablation (Nx). The data set is described as follows: Protocol 1 (early treatment), 5/6 renal ablation (Nx). It counts as in vivo, male Munich-Wistar rats. An excerpt:
One-hundred forty-five adult male Munich-Wistar rats, obtained from a local facility at the Faculty of Medicine, University of São Paulo, weighing between 220 and 250 g, were used in this study. All experimental procedures were approved by the local Research Ethics Committee (Comissão de Ética para Análise de Projetos de Pesquisa do Hospital das Clínicas da Faculdade de Medicina da Universidade de São Paulo, CAPPesq, process n° 0905/09), and carried out following strictly our institutional guidelines and current international standards for manipulation and care of laboratory animals. Body weights and general conditions were assessed daily. Five-sixths renal ablation (Nx) was performed as a single-step procedure under anesthesia with ketamine 50 mg/kg and xylazine 10 mg/kg im. After ventral laparotomy, the right kidney was excised and two or three branches of the left renal artery were ligated, so as to promote infarction of two-thirds of the left kidney. The operation was invariably well tolerated. Sham-operated rats underwent anesthesia and manipulation of the renal pedicles without removal of renal mass. After surgery, rats received enrofloxacin and, upon recovery, had free access to tap water and regular rodent chow containing 0.5 Na and 22% protein (Nuvital Labs, Curitiba, Brazil), and were kept at 23 ± 1 °C and 60 ± 5% relative air humidity, under an artificial 12–12 hour light/dark cycle. Rats were then treated following two different experimental protocols (described later).
In this first protocol, Nx rats were divided into groups: NX + V (N = 8), receiving vehicle; NX + Eple (N = 8), receiving oral (mixed with the chow) Eple, 150 mg/kg/day; and Nx + Ly (N = 8), receiving oral Ly, 20 mg/kg/day. A group of sham-operated rats (S, N = 7) was also studied. Treatments were started 24 h after surgery. Rats were followed during 60 days, with determination of TCP and UalbV on Days 30 and 60. TCP was assessed with an optoelectronic automated device (Visitech Systems, Apex, NC), after rats had been preconditioned so as to remain calm during the procedure. UalbV was measured with a conventional immunodiffusion technique. On Day 60, rats were anesthetized as described before, and blood was collected from the abdominal aorta for determination of serum creatinine, serum K^+, PRA and PAC. The remnant kidney was then perfusion-fixed with Duboscq-Brazil solution after a brief washout with saline to remove blood from renal vessels, and prepared for histomorphometric and immunohistochemical analyses using conventional sequential techniques.
Histomorphometric analysis was performed blindly by two independent observers. The extent of glomerular injury was estimated, in PAS-stained sections, by determining the percentage of glomeruli with sclerotic lesions. The fraction of the renal cortical area occupied by interstitial tissue (%INT) was estimated in 25 consecutive microscopic fields of Masson-stained sections by a point-counting technique, at a final magnification of 200X, under a 144-point grid.
PRA and PAC were determined using commercially available radioimmunoassay kits (Renin Active IRMA and Aldosterone Active RIA, Beckman Coulter, Carlsbad, CA).

Take `O=c1[nH]c2ccc(/C=C3\c4ccc(F)cc4COc4cc(F)ccc43)cc2[nH]1` [Ly]: in data set [1] (hGR expressed in HEK293 cells, read-out: Mean Ki ± SEM hGR*), the Ki turned out to be 112 ± 18 nM. Further, the “Ratio of Ki's hGR*: hMR” value in data set [1] (selectivity) worked out at 70. Also, in data set [2] (60 days after ablation, Eple 150 mg/kg/day, Ly 20 mg/kg/day oral), the “Albumin excretion rate (UalbV)” value was “significantly lower in Ly-treated than in untreated or Eple-treated rats”. In data set [2] (Day 60), the “Fractional cortical interstitial area” value is given as “significantly diminished”, the “Left kidney weight corrected for body weight (renal hypertrophy)” value is “renal hypertrophy was significantly attenuated” and the “Plasma renin activity (PRA)” value is on record as “markedly increased PRA”. Also, the “PAC relative to sham (S)” value in data set [2] (Day 60, higher than in S) is on record as “over 30 fold”. In addition, the “Plasma K+ levels” value in data set [2] (Day 60, versus Nx + V) is on record as “not aggravated”. Moreover, in data set [2] (Eple 150 mg/kg/day, Ly 20 mg/kg/day oral), the “Tail-cuff pressure (TCP)” value was “More pronounced attenuation of hypertension”.
